This note sets out measurements from patent US20220362153A1, “COMPOSITIONS AND METHODS FOR PULMONARY SURFACTANT-BIOMIMETIC NANOPARTICLES” (priority 2019, published 2022).

The test system of this assay is NC09 H1N1 virus. The assay is classed as in vivo. The note with it: unimmunized mice, 20 mg/kg/day.

Consider `CCOC(=O)C1=C[C@@H](OC(CC)CC)[C@H](NC(C)=O)[C@@H](N)C1` [oseltamivir], for which the “control of NC09 viral infection” value is listed as “but not NC09”.
